How the values were obtained:
MIA rat model of OA = test: MIA trial 1 histopathology; format: in vivo; conditions: necropsy day 29, n = 3; for Histopathology, cartilage score: 0-5 scale
Protocol: Following functional testing in the first and second MIA trials, femurs were fixed in paraformaldehyde, processed, sectioned, stained with hematoxylin and eosin or Safranin O at Premier Laboratory (Longmont, CO, USA), and analyzed by a veterinary pathologist. For MIA trial 1, sections were evaluated for the percentage area of chondrocyte necrosis and/or proteolytic degeneration using a 5-point scale with 0 = none; 1 being <10 %; 2 = 10–30 %; 3 = 30–60 %; 4 = 60–90 %; and 5 being >90 %. Other characteristics of inflammation, proliferation, and integrity of the synovium, subchondral bone, and articular cartilage were scored as normal, minimal, mild, moderate, marked, or increased or decreased when severity was not graded. MIA trial 2 was measured similarly and then cross-checked according to the methods used for MIA trial 3 (see text below).
The histopathology for the first MIA trial was performed by Premier Laboratories (Dr. Michael Hawes, APS, Pathologist). Treatments were masked during the assessment. Chondrocyte necrosis and proteolytic degeneration of the femurs were scored on a 5 point scale with 0 = None; 1 = <10%; […]
proteoglycan content (safranin O staining), synovial membrane inflammation and proliferation, subchondral bone, and articular cartilage (as indicated in Supplementary methods). Characteristics within these categories were scored as normal, minimal, mild, moderate, marked, or +/- when severity was not graded. […]
Degenerative changes occur by 3-6 weeks post-surgery in the MMT/MCLT model and are of greatest severity on the outer 1/3 of the tibial cartilage. Less severe degenerative changes are observed in the middle and inner 1/3 of the tibial cartilage. Osteophytes progressively increase in size and are ultimately quite large (medial tibia). By 12 months nearly all rats show total cartilage loss. Due to the rapid progression of cartilage degeneration, protective effects of therapeutics are not always apparent in the outer 1/3 of the tibial cartilage, although zonal analysis may reveal effects of treatment in the middle and inner 1/3. Substantial subchondral and epiphyseal bone changes occur in the medial tibia subjacent to the areas of greatest lesion severity. […]
Scores were based on the […]
percentage of area affected within the zone.
Cartilage degeneration in the tibia was scored on a five point scale for each zone, collagen damage across the medial tibial plateau was measured by total width for each grade damage. Cartilage degeneration in the tibia was scored none to severe (numerical values 0-5) for each zone (area defined by micrometer) using the following criteria: […]

MMP-13 = MMP-13 ELISA on supernatants of TNF-α-treated chondrogenic pellets; format: cell-based, human
MMT/MCLT rat model of OA = test: MMT/MCLT trial 1 weight bearing (daily morphine 10 mg/kg, tacrolimus 0.3 or 0.6 mg/kg, fluocinolone 5 or 10 μg/kg, clonidine 100 μg/kg, alendronate 10 μg/kg i.p.; curcumin, withaferin 50 mg/kg p.o.); format: in vivo
Protocol: Weight bearing (WB; incapacitance) was measured five times per day, once per week, using a Linton incapacitance meter (Stoelting Co., Wood Dale, IL, USA). Rats were acclimated to the meter before study initiation, and, similarly, immediately before WB, the animals were placed in the meter and allowed to acclimate for 2–5 minutes. Each hind paw was placed on a separate force plate so that the force exerted by each side could be averaged over a 5-second interval, and the mean of three readings was taken for each data point. Right paw force was compared with that on the left side for each group to confirm that animals were displaying incapacitance and/or pain behavior. Differences in force (left minus right) and right paw force as a percentage of the total force exerted by both paws were determined and compared between groups.
Following isoflurane anesthesia, the medial collateral ligament was transected just below its attachment to the meniscus in the right knee. The meniscus was cut at its narrowest point away from the ossicles so as not to damage the tibial surface and to ensure that the anterior and posterior meniscus halves were freely movable. […] In trial 2, drugs were administered IA weekly beginning 1 week following surgery. Three weeks postsurgery, animals were humanely killed and their right knees were collected for histopathology. All studies were conducted in accordance with the International Association for the Study of Pain Guidelines and were approved by the Bolder BioPATH IACUC (Boulder, CO, USA) in compliance with regulations before study initiation (IACUC protocol BBP03-006). Those running the studies were blinded to the treatments. See Additional file 1 for further details.
Isoflurane and the right knee area prepared for surgery. A skin incision was made over the medial aspect of the knee and the medial collateral ligament was exposed by blunt dissection and then transected. The medial meniscus was cut through the full thickness to simulate a complete tear and the skin was then closed with suture.
All pharmaceutical agents were prepared and stored as recommended by the supplier. Daily drug preparations were made fresh from stock solutions. […]
In Trial 2 drugs were […]
administered IA weekly beginning one week following surgery. […]
were delivered by gavage and were prepared in 0.3% Methyl Cellulose.
WB was measured five times a day, once a week, using a Linton incapacitance meter (Stoelting Co.) to assess pain behavior. Rats were acclimated to the incapacitance meter prior to study initiation.
Similarly, immediately prior to WB animals were placed in the incapacitance meter and allowed to acclimate for 2-5 minutes. Each hind paw was placed on a separate force plate so that the force exerted by each side could be averaged over a 5 second interval and the mean of three readings taken for each data point. Right paw force was compared to left for each group to confirm that animals were displaying incapacitance / pain behavior. Difference in force (left minus right) and right paw force as a percentage of the total force exerted by both paws were determined and compared between groups. Three weeks after surgery, animals were humanely euthanized and right knees collected for histopathology evaluation.
Figure 2. MMT/MCLT Trial Timeline […]
MMT/MCLT Dosing (once/day)
The study design and animal usage was approved by Bolder BioPATH’s Institutional Animal Care and Use Committee (IACUC) for compliance with regulations prior to study initiation (IACUC […]
Labs. Animals were identified by a distinct mark at the base of the tail delineating group and animal number. After randomization, all cages were labeled with protocol number, group numbers, and animal numbers with appropriate color-coding (see protocol).

NF-κB = test: TNF-α-stimulated NF-κB dual luciferase reporter assay in HeLa cells; format: cell-based
In short: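 HeLa cells transfected with NF-κB firefly luciferase and Renilla pRLuc-N3 plasmids (8:1), in triplicate; TNF-α stimulation with drug, luminescence read 5 h later by Dual-Glo. Firefly/Renilla ratio normalised to viable transfected cells, expressed as fold over cells without TNF-α or drug.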

With `Clc1cccc(Cl)c1N=C1NCCN1` [Clonidine] the “Histopathology, bone” value (MIA rat model of OA) was “Severe”, the “Histopathology, cartilage score” value (MIA rat model of OA) was 4.7 and the “Effective range against MMP-13” value (MMP-13) was “Not effective”. The “Weight bearing, hours with significant effect” value (MMT/MCLT rat model of OA; day 7, low or only dose) was 1 h and the “Effective range against NFkB” value (NF-κB) was “Not effective”.

In the case of `CC1=C(CO)C(=O)O[C@@H]([C@@H](C)[C@H]2CC[C@H]3[C@@H]4C[C@H]5O[C@]56[C@@H](O)C=CC(=O)[C@]6(C)[C@H]4CC[C@]23C)C1` [Withaferin A], the “Weight bearing, hours with significant effect” value (MMT/MCLT rat model of OA; day 7, low or only dose) was 1 h, the “Weight bearing, hours with significant effect” value (MMT/MCLT rat model of OA; day 14, low or only dose) was 3 h and the Effective against NF κβ (p<0.05) (NF-κB) was 2 to 17 µM.

With `C=CC[C@@H]1/C=C(\C)C[C@H](C)C[C@H](OC)[C@H]2O[C@@](O)(C(=O)C(=O)N3CCCC[C@H]3C(=O)O[C@H](/C(C)=C/[C@@H]3CC[C@@H](O)[C@H](OC)C3)[C@H](C)[C@@H](O)CC1=O)[C@H](C)C[C@@H]2OC` [Tacrolimus] the “Concentration inhibiting MMP-13” value (MMP-13; > = failed to inhibit up to highest concentration tested) was 50 µM, the “Weight bearing, hours with significant effect” value (MMT/MCLT rat model of OA; day 7, low or only dose) was 3 h and the “Weight bearing, hours with significant effect” value (MMT/MCLT rat model of OA; day 14, tacrolimus 0.6 mg/kg, fluocinolone 0.010 mg/kg) was 1 h. For the same compound, the “Weight bearing, hours with significant effect” value (MMT/MCLT rat model of OA; day 21, low or only dose) was 3 h.

`COc1ccc(C=CC(=O)Nc2ccccc2C(=O)O)cc1OC` [Tranilast, N-(3′,4′-dimethoxycinnamoyl)anthranilic acid] was tested, and the “Effective range against NFkB” value (NF-κB) was “None”.

`CC1(C)O[C@@H]2C[C@H]3[C@@H]4C[C@H](F)C5=CC(=O)C=C[C@]5(C)[C@@]4(F)[C@@H](O)C[C@]3(C)[C@]2(C(=O)CO)O1` [Fluocinolone, Fluocinolone Acetonide] was tested, and the “Histopathology, bone” value (MIA rat model of OA) was “Minimal”, the “Histopathology, cartilage score” value (MIA rat model of OA) was 3.0 and the “Weight bearing, hours with significant effect” value (MMT/MCLT rat model of OA; day 7, low or only dose) was 5 h. For the same compound, the “Weight bearing, hours with significant effect” value (MMT/MCLT rat model of OA; day 14, low or only dose) was 1,3 h and the “Weight bearing, hours with significant effect” value (MMT/MCLT rat model of OA; day 21, low or only dose) was 1 h.

— article PMC4721142, “Randomized controlled studies on the efficacy of antiarthritic agents in inhibiting cartilage degeneration and pain associated with progression of osteoarthritis in the rat” (Arthritis Research & Therapy, 2016)
